Measured values taken from ChEMBL document CHEMBL1201862, “PubChem BioAssay data set” (2004).
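How tested: cells in 96-well plates exposed to compound for 48 hours at five concentrations. Abbreviation: GI50, concentration required for 50% inhibition of growth.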 Calls of active or inactive are those of the source. No stated cut-off is given here; in the data, active = GI50 up to about 1.1 µM and inactive = higher.

Experiments:
Assay in all cases: DTP human tumour cell line panel, 48 h
[1] = tested on: OVCAR-5
[2] = tested on: A549
[3] = tested on: SK-OV-3
[4] = tested on: SR
[5] = tested on: KM12
[6] = tested on: RPMI-8226
[7] = tested on: K562
[8] = tested on: TK-10
[9] = tested on: HL-60
[10] = tested on: SF-295
[11] = tested on: SK-MEL-5
[12] = tested on: SW-620
[13] = tested on: NCI-H226
[14] = tested on: SN12C
[15] = tested on: LOX IMVI
[16] = tested on: MOLT-4
[17] = tested on: 786-0
[18] = tested on: HT-29
[19] = tested on: OVCAR-8

Compound: CSc1ncnc2c1ncn2CCC(=O)OC(C)(C)C
- GI50 [1]: > 100 µM (inactive)
- GI50 [2]: > 100 µM (inactive)
- GI50 [3]: > 100 µM (inactive)
- GI50 [4]: > 100 µM (inactive)
- GI50 [5]: > 100 µM (inactive)
- GI50 [6]: > 100 µM (inactive)
- GI50 [7]: > 100 µM (inactive)
- GI50 [8]: > 100 µM (inactive)
- GI50 [9]: > 100 µM (inactive)
- GI50 [10]: > 100 µM (inactive)
- GI50 [11]: > 100 µM (inactive)
- GI50 [12]: > 100 µM (inactive)
- GI50 [13]: > 100 µM (inactive)
- GI50 [14]: > 100 µM (inactive)
- GI50 [15]: > 100 µM (inactive)
- GI50 [16]: > 100 µM (inactive)
- GI50 [17]: > 100 µM (inactive)
- GI50 [18]: > 100 µM (inactive)
- GI50 [19]: > 100 µM (inactive)

Compound: CC(=O)NC1C(OCc2ccccc2)OC(COC(=O)CCCCCCCCCCNC(=O)c2cccc3c(=O)c4ccccc4[nH]c23)C(O)C1OC(C)C(=O)NC(C)C(=O)NC(CCC(N)=O)C(N)=O (stereo not given)
- GI50 [1]: > 100 µM (inactive)
- GI50 [2]: 40.9 µM (inactive)
- GI50 [3]: > 100 µM (inactive)
- GI50 [4]: 40.1 µM (inactive)
- GI50 [5]: 49.1 µM (inactive)
- GI50 [6]: 32.1 µM (inactive)
- GI50 [7]: 35.6 µM (inactive)
- GI50 [8]: > 100 µM (inactive)
- GI50 [9]: > 100 µM (inactive)
- GI50 [10]: 71.1 µM (inactive)
- GI50 [11]: 37.4 µM (inactive)
- GI50 [12]: 96.6 µM (inactive)
- GI50 [13]: 38.7 µM (inactive)
- GI50 [14]: > 100 µM (inactive)
- GI50 [15]: 49.3 µM (inactive)
- GI50 [16]: 47.1 µM (inactive)
- GI50 [17]: > 100 µM (inactive)
- GI50 [18]: 75.9 µM (inactive)
- GI50 [19]: 94.8 µM (inactive)

Compound: CC(C)C/C(CC(=O)CCC(=O)Nc1ccccc1[N+](=O)[O-])=N\NC(=O)c1cc2ccccc2cc1O
- GI50 [1]: 31 µM (inactive)
- GI50 [2]: > 100 µM (inactive)
- GI50 [3]: 79.6 µM (inactive)
- GI50 [4]: 30.2 µM (inactive)
- GI50 [5]: 67.6 µM (inactive)
- GI50 [6]: 50 µM (inactive)
- GI50 [7]: 25.9 µM (inactive)
- GI50 [8]: 51.2 µM (inactive)
- GI50 [9]: 23.2 µM (inactive)
- GI50 [10]: 43.5 µM (inactive)
- GI50 [11]: 28.1 µM (inactive)
- GI50 [12]: 41.4 µM (inactive)
- GI50 [13]: 19.3 µM (inactive)
- GI50 [14]: 50.6 µM (inactive)
- GI50 [15]: 27 µM (inactive)
- GI50 [16]: 20.2 µM (inactive)
- GI50 [17]: 36.8 µM (inactive)
- GI50 [18]: 91.2 µM (inactive)
- GI50 [19]: 23.1 µM (inactive)

Compound: COc1cc([C@@H]2c3cc4c(cc3[C@@H](Nc3ccc(/N=C\c5ccc(C(=O)O[C@@H](C(=O)O[C@H]6C[C@@]7(O)[C@@H](OC(=O)c8ccccc8)[C@@H]8[C@]9(OC(C)=O)CO[C@@H]9C[C@H](O)[C@@]8(C)C(=O)[C@H](OC(C)=O)C(=C6C)C7(C)C)[C@@H](NC(=O)c6ccccc6)c6ccccc6)cc5)cc3)[C@H]3COC(=O)[C@H]23)OCO4)cc(OC)c1O
- GI50 [1]: 20.2 µM (inactive)
- GI50 [2]: 0.721 µM (active)
- GI50 [3]: 2.78 µM (inactive)
- GI50 [4]: 0.0102 µM (active)
- GI50 [5]: 15.8 µM (inactive)
- GI50 [6]: 2.59 µM (inactive)
- GI50 [7]: 2.28 µM (inactive)
- GI50 [8]: 10.4 µM (inactive)
- GI50 [9]: 0.697 µM (active)
- GI50 [10]: 1.99 µM (inactive)
- GI50 [11]: 2.96 µM (inactive)
- GI50 [12]: 8.73 µM (inactive)
- GI50 [13]: 1.57 µM (inactive)
- GI50 [14]: 2.88 µM (inactive)
- GI50 [15]: 3.49 µM (inactive)
- GI50 [16]: 0.14 µM (active)
- GI50 [17]: 2.63 µM (inactive)
- GI50 [18]: 9.04 µM (inactive)
- GI50 [19]: 6.15 µM (inactive)

Compound: O=c1c2ccccc2nc(-c2ccccc2)n1NC(=S)Nc1ccc(Cl)cc1
- GI50 [1]: > 100 µM (inactive)
- GI50 [2]: 59.7 µM (inactive)
- GI50 [3]: > 100 µM (inactive)
- GI50 [4]: 65.9 µM (inactive)
- GI50 [5]: 85.9 µM (inactive)
- GI50 [6]: 69.7 µM (inactive)
- GI50 [7]: 48.4 µM (inactive)
- GI50 [8]: > 100 µM (inactive)
- GI50 [9]: 56.9 µM (inactive)
- GI50 [10]: > 100 µM (inactive)
- GI50 [11]: 36.9 µM (inactive)
- GI50 [12]: > 100 µM (inactive)
- GI50 [13]: 96.6 µM (inactive)
- GI50 [14]: > 100 µM (inactive)
- GI50 [15]: > 100 µM (inactive)
- GI50 [16]: 69 µM (inactive)
- GI50 [17]: > 100 µM (inactive)
- GI50 [18]: 53.8 µM (inactive)
- GI50 [19]: > 100 µM (inactive)
